Measurements reported in publication PMC7269503 (Antimicrobial Agents and Chemotherapy, 2020).
In brackets after ≈: the same amount, converted by molar mass.

Legend:
[1] = system: OPC-167832-resistant isolates of M. tuberculosis H37Rv; assay type: cell-based
[2] = female, ICR, mouse, in vivo, po, 2.5 mg/kg

With `O=C1CCc2c(OC[C@]3(O)CCN(c4c(F)cc(Cl)cc4F)C[C@H]3O)ccc(F)c2N1` [OPC-167832] the “MIC against Rv0678 mutants” value [1] was 1 ng/mL (≈ 2.19 nM), the “AUCt/12 h/MIC” value [2] was 95 fold and the Cmax/MIC [2] was 314 fold.
